Experimental data as given in US9199946B2, “Pyrimidinone carboxamide inhibitors of endothelial lipase” (BRISTOL-MYERS SQUIBB COMPANY, priority 2012, dated 2015).

What follows are molecules tested against T1, Endothelial lipase (EL) (Homo sapiens, UniProt Q9Y5X9) (assay: Endothelial lipase (EL) enzymatic assay with fluorescent substrate A10070 in DMPG vesicles). Details: conditioned media from HT-1080 cells overexpressing endogenous EL; 20 min preincubation at 37° C.; read-out: EL IC50.
T1 construct: HT-1080 cells, which were transformed by RAGE technology (Athersys) to overexpress endogenous EL; endogenous in cells; conditioned medium used as the enzyme source
T1 sequence (Q9Y5X9 21-500): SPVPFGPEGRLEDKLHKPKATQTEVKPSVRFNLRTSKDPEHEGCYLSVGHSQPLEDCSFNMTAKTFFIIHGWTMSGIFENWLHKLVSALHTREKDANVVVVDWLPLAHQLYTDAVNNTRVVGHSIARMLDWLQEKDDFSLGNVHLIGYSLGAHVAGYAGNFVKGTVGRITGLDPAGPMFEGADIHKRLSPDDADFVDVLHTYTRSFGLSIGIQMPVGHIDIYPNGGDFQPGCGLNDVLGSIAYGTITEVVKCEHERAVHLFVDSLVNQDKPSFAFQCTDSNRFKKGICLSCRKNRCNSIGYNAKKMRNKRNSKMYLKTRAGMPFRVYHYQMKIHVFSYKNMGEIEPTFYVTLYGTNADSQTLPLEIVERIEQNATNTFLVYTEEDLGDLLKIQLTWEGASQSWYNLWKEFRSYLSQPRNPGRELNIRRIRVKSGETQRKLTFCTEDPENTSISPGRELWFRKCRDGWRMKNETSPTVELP
Assay type: biochemical
Outline: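 EL activity was followed as a fluorescence rate (488/530 nm, reads every 20 s for 10 min, linear slope) on A10070 doped at 0.05 mole fraction into sonicated DMPG vesicles. Compound was first incubated 20 min at 37 °C, pH 8.0 HEPES/CaCl2 buffer, with conditioned media from EL-overexpressing HT-1080 cells.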

Row | IC50 [µM] | Compound
1 | 2.25 | Cn1nccc1-c1ccc([C@@H]2CC[C@H](NC(=O)c3[nH]c(=O)[nH]c(=O)c3N)C2)cc1 [Example 163, 5-amino-N-((1S,3R)-3-(4-(1-methyl-1H-pyrazol-5-yl)phenyl)cyclopentyl)-2,6-dioxo-1,2,3,6-tetrahydropyrimidine-4-carboxamide]

Same assay, conditions: range observed in the EL assay; read-out: EL IC50 values

Row | IC50 [µM] | Compound
2 | ≤ 10 | Nc1c(C(=O)N[C@@H]2CCCc3cc(OCc4ccccc4)ccc32)[nH]c(=O)[nH]c1=O [Example 83, (R)-5-amino-N-(6-(benzyloxy)-1,2,3,4-tetrahydronaphthalen-1-yl)-2,6-dioxo-1,2,3,6-tetrahydropyrimidine-4-carboxamide]
3 | ≤ 10 | Nc1c(C(=O)N[C@@H]2CCCc3cc(C(F)(F)F)ccc32)[nH]c(=O)[nH]c1=O [Example 51, (R)-5-amino-2,6-dioxo-N-(6-(trifluoromethyl)-1,2,3,4-tetrahydronaphthalen-1-yl)-1,2,3,6-tetrahydropyrimidine-4-carboxamide]
4 | ≤ 10 | O=C(N[C@@H]1CCCc2ccccc21)c1[nH]c(=O)[nH]c(=O)c1O [Example 276, (R)-5-hydroxy-2,6-dioxo-N-(1,2,3,4-tetrahydronaphthalen-1-yl)-1,2,3,6-tetrahydropyrimidine-4-carboxamide]
5 | ≤ 10 | COC(=O)C1CCCC(NC(=O)c2[nH]c(=O)[nH]c(=O)c2N)C1 (stereo not shown) [Example 58, methyl 3-(5-amino-2,6-dioxo-1,2,3,6-tetrahydropyrimidine-4-carboxamido) cyclohexanecarboxylate]
6 | ≤ 10 | Nc1c(C(=O)N[C@@H]2CCCc3c(CCc4ccccc4)cccc32)[nH]c(=O)[nH]c1=O [Example 111, (R)-5-amino-2,6-dioxo-N-(5-phenethyl-1,2,3,4-tetrahydronaphthalen-1-yl)-1,2,3,6-tetrahydropyrimidine-4-carboxamide]
7 | ≤ 10 | CCn1c(=O)[nH]c(C(=O)N[C@H]2CC[C@@H](c3ccccc3)CC2)c(O)c1=O [Example 239, 1-Ethyl-5-hydroxy-2,6-dioxo-N-(cis-4-phenylcyclohexyl)-1,2,3,6-tetrahydropyrimidine-4-carboxamide]
8 | ≤ 10 | O=C(N[C@@H]1CCCc2c(OCC(F)(F)F)cccc21)c1[nH]c(=O)[nH]c(=O)c1O [Example 255, (R)-5-hydroxy-2,6-dioxo-N-(5-(2,2,2-trifluoroethoxy)-1,2,3,4-tetrahydronaphthalen-1-yl)-1,2,3,6-tetrahydropyrimidine-4-carboxamide]
9 | ≤ 10 | Nc1c(C(=O)NC2CCCCC2C2CCCCC2)[nH]c(=O)[nH]c1=O (stereo not shown) [Example 59, 5-amino-N-(bi(cyclohexan)-2-yl)-2,6-dioxo-1,2,3,6-tetrahydropyrimidine-4-carboxamide]
10 | ≤ 10 | COc1ccc(-c2ccc([C@@H]3CC[C@H](NC(=O)c4[nH]c(=O)[nH]c(=O)c4N)C3)cc2)cc1 [Example 168, 5-amino-N-((1S,3R)-3-(4′-methoxybiphenyl-4-yl)cyclopentyl)-2,6-dioxo-1,2,3,6-tetrahydropyrimidine-4-carboxamide]
11 | ≤ 10 | Nc1c(C(=O)N[C@H]2CC[C@H](c3ccccc3)C2)[nH]c(=O)[nH]c1=O [Example 76, 5-amino-2,6-dioxo-N-((1S,3S)-3-phenylcyclopentyl)-1,2,3,6-tetrahydropyrimidine-4-carboxamide]
12 | ≤ 10 | Nc1c(C(=O)N[C@@H]2CCCc3c(OCC4CCCC4)cccc32)[nH]c(=O)[nH]c1=O [Example 113, (R)-5-amino-N-(5-(cyclopentylmethoxy)-1,2,3,4-tetrahydronaphthalen-1-yl)-2,6-dioxo-1,2,3,6-tetrahydropyrimidine-4-carboxamide]
13 | ≤ 10 | O=C(N[C@H]1CCC[C@H](c2ccccc2)C1)c1[nH]c(=O)[nH]c(=O)c1O [Example 277, 5-hydroxy-2,6-dioxo-N-((1S,3S)-3-phenylcyclohcxyl)-1,2,3,6-tetrahydropyrimidine-4-carboxamide]
14 | ≤ 10 | Nc1c(C(=O)N[C@@H]2CC[C@H](c3ccc(Cl)c(Cl)c3)C2)[nH]c(=O)[nH]c1=O [Example 74, 5-amino-N-((1R,3S)-3-(3,4-dichlorophenyl)cyclopentyl)-2,6-dioxo-1,2,3,6-tetrahydropyrimidine-4-carboxamide]
15 | ≤ 10 | Cn1nccc1-c1ccc([C@@H]2CC[C@H](NC(=O)c3[nH]c(=O)[nH]c(=O)c3N)C2)cc1 [Example 163, 5-amino-N-((1S,3R)-3-(4-(1-methyl-1H-pyrazol-5-yl)phenyl)cyclopentyl)-2,6-dioxo-1,2,3,6-tetrahydropyrimidine-4-carboxamide]
16 | ≤ 10 | Cc1cc(Cl)nc(N2CCCC(NC(=O)c3[nH]c(=O)[nH]c(=O)c3N)C2)n1 (stereo not shown) [Example 185, 5-amino-N-(1-(4-chloro-6-methylpyrimidin-2-yl)piperidin-3-yl)-2,6-dioxo-1,2,3,6-tetrahydropyrimidine-4-carboxamide]
17 | ≤ 10 | Nc1c(C(=O)NC2CCC(c3ccccc3)CC2)[nH]c(=O)[nH]c1=O (stereo not shown) [Example 2, 5-amino-2,6-dioxo-N-(4-phenylcyclohexyl)-1,2,3,6-tetrahydropyrimidine-4-carboxamide]
18 | ≤ 10 | Nc1c(C(=O)N[C@H]2CCCc3cc(OCC(F)(F)F)ccc32)[nH]c(=O)[nH]c1=O [Example 34, (S)-5-amino-2,6-dioxo-N-(6-(2,2,2-trifluoroethoxy)-1,2,3,4-tetrahydronaphthalen-1-yl)-1,2,3,6-tetrahydropyrimidine-4-carboxamide]
19 | ≤ 10 | Nc1c(C(=O)N[C@@H]2CC[C@@H](C(=O)N[C@H]3CCCc4ccccc43)C2)[nH]c(=O)[nH]c1=O [Example 146, 5-amino-2,6-dioxo-N-((1R,3R)-3-((S)-1,2,3,4-tetrahydronaphthalen-1-ylcarbamoyl)cyclopentyl)-1,2,3,6-tetrahydropyrimidine-4-carboxamide]
20 | ≤ 10 | Nc1c(C(=O)NC2CCC(c3cccc(OCc4ccccc4)c3)C2)[nH]c(=O)[nH]c1=O (stereo not shown) [Example 104, 5-amino-N-(3-(3-(benzyloxy)phenyl)cyclopentyl)-2,6-dioxo-1,2,3,6-tetrahydropyrimidine-4-carboxamide]
21 | ≤ 10 | O=C(N[C@H]1CC[C@@H](NC(=O)c2[nH]c(=O)[nH]c(=O)c2O)CC1)c1ccccc1 [Example 260, N-((1s,4s)-4-benzamidocyclohexyl)-5-hydroxy-2,6-dioxo-1,2,3,6-tetrahydropyrimidine-4-carboxamide]
22 | ≤ 10 | Nc1c(C(=O)N[C@H]2CCCc3ccccc32)[nH]c(=O)[nH]c1=O [Example 10, (S)-5-amino-2,6-dioxo-N-(1,2,3,4-tetrahydronaphthalen-1-yl)-1,2,3,6-tetrahydropyrimidine-4-carboxamide]
23 | ≤ 10 | COc1ccc2c(c1OC)CCC(NC(=O)c1[nH]c(=O)[nH]c(=O)c1N)C2 (stereo not shown) [Example 108, 5-amino-N-(5,6-dimethoxy-1,2,3,4-tetrahydronaphthalen-2-yl)-2,6-dioxo-1,2,3,6-tetrahydropyrimidine-4-carboxamide]
24 | ≤ 10 | Nc1c(C(=O)NC2CCC(c3nc4ccc(-c5ccccc5)cc4s3)C2)[nH]c(=O)[nH]c1=O (stereo not shown) [Example 144, 5-amino-2,6-dioxo-N-(3-(6-phenylbenzo[d]thiazol-2-yl)cyclopentyl)-1,2,3,6-tetrahydropyrimidine-4-carboxamide]
25 | ≤ 10 | O=C(N[C@H]1CC[C@@H](c2ccccc2)CC1)c1[nH]c(=O)[nH]c(=O)c1NCCCc1ccccc1 [Example 207, 2,6-dioxo-N-(cis-4-phenylcyclohexyl)-5-(3-phenylpropylamino)-1,2,3,6-tetrahydropyrimidine-4-carboxamide]
